Assay results from ChEMBL document CHEMBL4706659, “Design, synthesis and biological evaluation of novel 2,4-diaryl pyrimidine derivatives as selective EGFR inhibitors” (Eur J Med Chem, 2021).

How the values were obtained:
[1] = test system: PC-9; test: Antiproliferative activity against human PC-9 cells harboring EGFR L858R mutant by MTT assay; format: functional, cell-based
[2] = test system: NCI-H1975; test: Antiproliferative activity against human NCI-H1975 cells harboring EGFR T790M/L858R mutant by MTT assay; format: functional, cell-based
[3] = test system: NCI-H292; test: Antiproliferative activity against human NCI-H292 cells harboring wild-type EGFR by MTT assay; format: functional, cell-based
[4] = Selectivity ratio of IC50 for antiproliferative activity against human NCI-H292 cells harboring wild-type EGFR to IC50 for antiproliferative activity against human NCI-H1975 cells harboring EGFR T790M/L858R mutant; format: functional
[5] = test system: PC-9; test: Antiproliferative activity against human PC-9 cells; format: functional, cell-based
[6] = test system: NCI-H1975; test: Antiproliferative activity against human NCI-H1975 cells; format: functional, cell-based
[7] = Antiproliferative activity against human RPC9 cells; format: functional, cell-based
[8] = Antiproliferative activity against human DiFi cells; format: functional, cell-based
[9] = test system: HK-2; test: Cytotoxicity against HK-2 cells assessed as reduction in cell viability by MTT assay; format: cell-based; conditions: Homo sapiens
[10] = Cytotoxicity against HLF cells assessed as reduction in cell viability by MTT assay; format: cell-based; conditions: Homo sapiens
[11] = Cytotoxicity against HEK293-A cells assessed as reduction in cell viability by MTT assay; format: cell-based; conditions: Homo sapiens
[12] = test system: NCI-H1975; test: Antitumor activity against human NCI-H1975 cells harboring EGFR T790M/L858R mutant xenografted in nude mouse assessed as tumor volume at 15 mg/kg, po administered once daily for 7 days (reference value: 843 mm3); format: functional; conditions: time 7 day
[13] = test system: NCI-H1975; test: Antitumor activity against human NCI-H1975 cells harboring EGFR T790M/L858R mutant xenografted in nude mouse assessed as tumor growth inhibition at 15 mg/kg, po administered once daily for 7 days relative to control; format: functional; conditions: time 7 day
[14] = Half life in Sprague-Dawley rat at 10 mg/kg, po administered as single dose; format: ADME, organism-based; conditions: in vivo
[15] = Tmax in Sprague-Dawley rat at 10 mg/kg, po administered as single dose; format: ADME, organism-based; conditions: in vivo
[16] = Cmax in Sprague-Dawley rat at 10 mg/kg, po administered as single dose; format: ADME, organism-based; design: route oral, dose 10 mg/kg; conditions: in vivo
[17] = AUC (0 to t) in Sprague-Dawley rat at 10 mg/kg, po administered as single dose; format: ADME, organism-based; design: dose 10 mg/kg; conditions: in vivo
[18] = AUC (0 to infinity) in Sprague-Dawley rat at 10 mg/kg, po administered as single dose; format: ADME, organism-based; design: time infinity, route oral, dose 10 mg/kg; conditions: in vivo
[19] = MRT in Sprague-Dawley rat at 10 mg/kg, po administered as single dose; format: ADME, organism-based; conditions: in vivo
[20] = Oral bioavailability in Sprague-Dawley rat at 10 mg/kg administered as single dose; format: ADME, organism-based; conditions: in vivo
[21] = Half life in Sprague-Dawley rat at 2 mg/kg, iv administered as single dose; format: ADME, organism-based; conditions: in vivo
[22] = Cmax in Sprague-Dawley rat at 2 mg/kg, iv administered as single dose; format: ADME, organism-based; design: route intravenous, dose 2 mg/kg; conditions: in vivo
[23] = AUC (0 to t) in Sprague-Dawley rat at 2 mg/kg, iv administered as single dose; format: ADME, organism-based; design: dose 2 mg/kg; conditions: in vivo
[24] = AUC (0 to infinity) in Sprague-Dawley rat at 2 mg/kg, iv administered as single dose; format: ADME, organism-based; design: route intravenous, time infinity, dose 2 mg/kg; conditions: in vivo
[25] = Clearance in Sprague-Dawley rat at 2 mg/kg, iv administered as single dose; format: ADME, organism-based; conditions: in vivo
[26] = MRT in Sprague-Dawley rat at 2 mg/kg, iv administered as single dose; format: ADME, organism-based; conditions: in vivo
[27] = test system: BT-474; test: Antiproliferative activity against human BT-474 cells; format: functional, cell-based
[28] = test system: SK-BR-3; test: Antiproliferative activity against human SK-BR-3 cells; format: functional, cell-based

SMILES	IC50 [1]	IC50 [2]	IC50 [3]	Ratio IC50 [4]	other results
C=CC(=O)Nc1cccc(Nc2nc(Nc3ccc(N4CCN(C(C)=O)CC4)cc3OC)ncc2C(F)(F)F)c1 [ROCILETINIB]	–	–	–	–	IC50 [5]: 84 nM; IC50 [6]: 23 nM
CN(C)C/C=C/C(=O)Nc1cc2c(Nc3ccc(F)c(Cl)c3)ncnc2cc1O[C@H]1CCOC1 [AFATINIB]	–	–	–	–	IC50 [5]: 0.3 nM; IC50 [7]: 164 nM
C#Cc1cccc(Nc2ncnc3cc(OCCOC)c(OCCOC)cc23)c1 [ERLOTINIB]	–	–	–	–	IC50 [8]: 20 nM
C=CC(=O)Nc1cccc(Oc2nc(Nc3ccc(N4CCN(C)CC4)cc3OC)ncc2Cl)c1	–	–	–	–	IC50 [5]: 36 nM; IC50 [6]: 47 nM
C=CC(=O)Nc1cc(Nc2nccc(-c3cn(C4CC4)c4ccccc34)n2)c(OC)cc1N(C)CCO	64 nM	74 nM	1690 nM	22.9	–
C=CC(=O)Nc1cc(Nc2nccc(-c3cn(C4CC4)c4ccccc34)n2)c(OC)cc1N1CCSCC1	734 nM	333 nM	> 10000 nM	>30	–
C=CC(=O)Nc1cc(Nc2nccc(-c3cn(C)c4ccccc34)n2)c(OC)cc1N(C)CCN(C)C [OSIMERTINIB]	[…]	[…]	924 nM	–	IC50 [9]: 2720 nM; IC50 [10]: 3350 nM; IC50 [11]: 2250 nM; Activity [12]: 21 mm3; TGI [13]: 97.64%
C=CC(=O)Nc1cc(Nc2nccc(-c3cn(C4CC4)c4ccccc34)n2)c(OC)cc1N(C)CC[S+](C)[O-] (stereo not drawn)	261 nM	411 nM	1140 nM	2.8	–
C=CC(=O)Nc1cc(Nc2nccc(-c3cn(C)c4ccccc34)n2)c(OC)cc1[S+]([O-])CCN(C)C (stereo not drawn)	–	–	–	–	half-life [14]: 1.43 h; Tmax [15]: 1 h; Cmax [16]: 275 ng/mL; AUC(0-t) [17]: 635 ng·h/mL; AUC(0-inf) [18]: 652 ng·h/mL; MRT [19]: 2.07 h; bioavailability [20]: 31.6%; half-life [21]: 0.62 h; Cmax [22]: 789 ng/mL; AUC(0-t) [23]: 402 ng·h/mL; AUC(0-inf) [24]: 406 ng·h/mL; clearance [25]: 82.2 mL/min/kg; MRT [26]: 0.89 h
C=CC(=O)Nc1cc(Nc2nccc(-c3cn(C4CC4)c4ccccc34)n2)c(OC)cc1N(C)CCSC	1320 nM	1300 nM	2630 nM	2	–
C=CC(=O)Nc1cc(Nc2nccc(-c3cn(C4CC4)c4ccccc34)n2)c(OC)cc1OCC[S+](C)[O-] (stereo not drawn)	435 nM	544 nM	4810 nM	8.8	–
C=CC(=O)Nc1cc(Nc2ncc(Cl)c(-c3cn(C4CC4)c4ccccc34)n2)c(OC)cc1[S+]([O-])CCN(C)C (stereo not drawn)	5 nM	9 nM	156 nM	17.3	–
COc1cc2ncnc(Nc3ccc(F)c(Cl)c3)c2cc1NC(=O)/C=C/CN1CCCCC1 [DACOMITINIB ANHYDROUS]	–	–	–	–	IC50 [27]: 18 nM; IC50 [28]: 15 nM
C=CC(=O)Nc1cc(Nc2nccc(-c3cn(C4CC4)c4ccccc34)n2)c(OC)cc1OCCCSC	2320 nM	1120 nM	> 10000 nM	>8.9	–
C=CC(=O)Nc1cc(Nc2nccc(-c3cn(C4CC4)c4ccccc34)n2)c(OC)cc1OCCSC	648 nM	543 nM	9770 nM	18	–

Further lines, with some results ahead:

IC50 [1]	IC50 [2]	IC50 [3]	SMILES	Ratio IC50 [4]	other results
9 nM	8 nM	157 nM	C=CC(=O)Nc1cc(Nc2ncc(Cl)c(-c3cn(C4CC4)c4ccccc34)n2)c(OC)cc1SCCN(C)C	19.6	–
5 nM	8 nM	432 nM	C=CC(=O)Nc1cc(Nc2nccc(-c3cn(C4CC4)c4ccccc34)n2)c(OC)cc1OCCN(C)C	54	–
44 nM	21 nM	674 nM	C=CC(=O)Nc1cc(Nc2nccc(-c3cn(C4CC4)c4ccccc34)n2)c(OC)cc1SCCN(C)C	32.1	–
203 nM	445 nM	3760 nM	C=CC(=O)Nc1cc(Nc2nccc(-c3cn(C4CC4)c4ccccc34)n2)c(OC)cc1OCCC[S+](C)[O-] (stereo not drawn)	8.5	–
